In US11053204B2, “Pyrimidinyloxy benzene derivatives as herbicides” (FMC Corporation, priority 2015, dated 2021):

Tests used:
Format in all cases: in vivo
[1] = tested on: Italian ryegrass (Lolium multiflorum); assay: Test A preemergence, visual injury rating; settings: Lolium multiflorum, pre-emergence, 240 h, 0 to 100 scale (0 no effect, 100 complete control), read-out: Ryegrass, Italian plant response rating
Procedure, shortened: (§1)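 Greenhouse pot test, loam/sand soil. Formulation: non-phytotoxic solvent mix plus surfactant. Pre: directed spray onto soil after sowing. Post: plants at 1–2 leaf, 2–10 cm. Rated visually vs untreated controls at ~10 d, 0 (no effect) to 100 (complete control).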

[2] = tested on: barnyardgrass (Echinochloa crus-galli); assay: Test A preemergence, visual injury rating; settings: Echinochloa crus-galli, pre-emergence, 240 h, 0 to 100 scale (0 no effect, 100 complete control), read-out: Barnyardgrass plant response rating
Procedure, shortened: as §1

[3] = tested on: giant foxtail (Setaria faberii); assay: Test A preemergence, visual injury rating; settings: Setaria faberi, pre-emergence, 240 h, 0 to 100 scale (0 no effect, 100 complete control), read-out: Foxtail, Giant plant response rating
Procedure, shortened: as §1

kochia (Kochia scoparia) [4] = assay: Test A preemergence, visual injury rating; settings: Bassia scoparia, pre-emergence, 240 h, 0 to 100 scale (0 no effect, 100 complete control), read-out: Kochia plant response rating
Procedure, shortened: as §1

[5] = tested on: pigweed (Amaranthus retroflexus); assay: Test A preemergence, visual injury rating; settings: Amaranthus retroflexus, pre-emergence, 240 h, 0 to 100 scale (0 no effect, 100 complete control), read-out: Pigweed plant response rating
Procedure, shortened: as §1

[6] = tested on: ragweed (common ragweed, Ambrosia elatior); assay: Test A preemergence, visual injury rating; settings: Ambrosia artemisiifolia, pre-emergence, 240 h, 0 to 100 scale (0 no effect, 100 complete control), read-out: Ragweed plant response rating
Procedure, shortened: as §1

[7] = tested on: barnyardgrass (Echinochloa crus-galli); assay: Test C postemergence, plant response rating; settings: Echinochloa crus-galli, post-emergence
Procedure, shortened: (§2)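 Visual injury score, 0 = no effect, 100 = complete control, assigned against untreated controls after 13 to 15 d in the greenhouse. Compounds were applied in a surfactant-containing non-phytotoxic solvent mix, preemergence to seeded loam/sand or silt loam soil, or postemergence to 1- to 4-leaf plants (2 to 18 cm).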

corn (Zea mays) = assay: Test C postemergence, plant response rating; settings: Zea mays, post-emergence
Procedure, shortened: as §2

[8] = tested on: crabgrass, large (large crabgrass, Digitaria sanguinalis); assay: Test C postemergence, plant response rating; settings: Digitaria sanguinalis, post-emergence
Procedure, shortened: as §2

kochia (Kochia scoparia) [9] = assay: Test C postemergence, plant response rating; settings: Bassia scoparia, post-emergence
Procedure, shortened: as §2

[10] = tested on: lambsquarters (Chenopodium album); assay: Test C postemergence, plant response rating; settings: Chenopodium album, post-emergence
Procedure, shortened: as §2

[11] = tested on: morningglory (Ipomoea coccinea); assay: Test C postemergence, plant response rating; settings: Ipomoea, post-emergence
Procedure, shortened: as §2

[12] = tested on: nutsedge, yellow (yellow nutsedge, Cyperus esculentus); assay: Test C postemergence, plant response rating; settings: Cyperus, post-emergence
Procedure, shortened: as §2

[13] = tested on: oat, wild (wild oat Avena fatua); assay: Test C postemergence, plant response rating; settings: Avena fatua, post-emergence
Procedure, shortened: as §2

[14] = tested on: ragweed (common ragweed, Ambrosia elatior); assay: Test C postemergence, plant response rating; settings: Ambrosia artemisiifolia, post-emergence
Procedure, shortened: as §2

[15] = tested on: velvetleaf (Abutilon theophrasti); assay: Test C postemergence, plant response rating; settings: Abutilon theophrasti, post-emergence
Procedure, shortened: as §2

[16] = 62 g ai/ha, scale 0 to 100 (0 no effect, 100 complete control)
[17] = 125 g ai/ha, scale 0 to 100 (0 no effect, 100 complete control)

O=C(OCCC(F)(F)F)c1c(Cl)cccc1Oc1ncc(Cl)cn1 [Compound 15, 3,3,3-trifluoropropyl 2-chloro-6-[(5-chloro-2-pyrimidinyl)oxy]benzoate]
pest or weed control at 125 g/ha ([1]; 125 g ai/ha): 40%
pest or weed control at 500 g/ha ([1]; 500 g ai/ha): 90%
pest or weed control at 125 g/ha ([2]; 125 g ai/ha): 100%
pest or weed control at 500 g/ha ([2]; 500 g ai/ha): 100%
pest or weed control at 125 g/ha ([3]; 125 g ai/ha): 100%
pest or weed control at 500 g/ha ([3]; 500 g ai/ha): 100%
pest or weed control at 125 g/ha (kochia (Kochia scoparia) [4]; 125 g ai/ha): 100%
pest or weed control at 500 g/ha (kochia (Kochia scoparia) [4]; 500 g ai/ha): 100%
pest or weed control at 125 g/ha ([5]; 125 g ai/ha): 100%
pest or weed control at 500 g/ha ([5]; 500 g ai/ha): 100%
pest or weed control at 125 g/ha ([6]; 125 g ai/ha): 0%
pest or weed control at 500 g/ha ([6]; 500 g ai/ha): 10%
pest or weed control at 16 g/ha ([7]; 16 g ai/ha, scale 0 to 100): 20%
pest or weed control at 31 g/ha ([7]; 31 g ai/ha, scale 0 to 100): 15%
pest or weed control at 62 g/ha [7, 16]: 20%
pest or weed control at 125 g/ha [7, 17]: 20%
Corn plant response rating (crop injury, 0 = no effect, 100 = complete kill) at 16 g/ha (corn (Zea mays); 16 g ai/ha, scale 0 to 100): 15%
Corn plant response rating (crop injury, 0 = no effect, 100 = complete kill) at 31 g/ha (corn (Zea mays); 31 g ai/ha, scale 0 to 100): 10%
plant injury at 62 g/ha (corn (Zea mays); [16]): 20%
plant injury at 125 g/ha (corn (Zea mays); [17]): 20%
pest or weed control at 16 g/ha ([8]; 16 g ai/ha, scale 0 to 100): 30%
pest or weed control at 31 g/ha ([8]; 31 g ai/ha, scale 0 to 100): 20%
pest or weed control at 62 g/ha [8, 16]: 25%
pest or weed control at 125 g/ha [8, 17]: 25%
pest or weed control at 16 g/ha (kochia (Kochia scoparia) [9]; 16 g ai/ha, scale 0 to 100): 90%
pest or weed control at 31 g/ha (kochia (Kochia scoparia) [9]; 31 g ai/ha, scale 0 to 100): 95%
pest or weed control at 62 g/ha (kochia (Kochia scoparia) [9]; [16]): 95%
pest or weed control at 125 g/ha (kochia (Kochia scoparia) [9]; [17]): 95%
pest or weed control at 16 g/ha ([10]; 16 g ai/ha, scale 0 to 100): 70%
pest or weed control at 31 g/ha ([10]; 31 g ai/ha, scale 0 to 100): 75%
pest or weed control at 62 g/ha [10, 16]: 75%
pest or weed control at 125 g/ha [10, 17]: 95%
pest or weed control at 16 g/ha ([11]; 16 g ai/ha, scale 0 to 100): 65%
pest or weed control at 31 g/ha ([11]; 31 g ai/ha, scale 0 to 100): 75%
pest or weed control at 62 g/ha [11, 16]: 85%
pest or weed control at 125 g/ha [11, 17]: 90%
pest or weed control at 16 g/ha ([12]; 16 g ai/ha, scale 0 to 100): 0%
pest or weed control at 31 g/ha ([12]; 31 g ai/ha, scale 0 to 100): 0%
pest or weed control at 62 g/ha [12, 16]: 5%
pest or weed control at 125 g/ha [12, 17]: 20%
pest or weed control at 16 g/ha ([13]; 16 g ai/ha, scale 0 to 100): 5%
pest or weed control at 31 g/ha ([13]; 31 g ai/ha, scale 0 to 100): 5%
pest or weed control at 62 g/ha [13, 16]: 5%
pest or weed control at 125 g/ha [13, 17]: 10%
pest or weed control at 16 g/ha ([14]; 16 g ai/ha, scale 0 to 100): 30%
pest or weed control at 31 g/ha ([14]; 31 g ai/ha, scale 0 to 100): 40%
pest or weed control at 62 g/ha [14, 16]: 50%
pest or weed control at 125 g/ha [14, 17]: 65%
pest or weed control at 16 g/ha ([15]; 16 g ai/ha, scale 0 to 100): 50%
pest or weed control at 31 g/ha ([15]; 31 g ai/ha, scale 0 to 100): 50%
pest or weed control at 62 g/ha ([15]; 62 g ai/ha, scale 0 to 100 (0 no effect, 100 complete control), read-out: Velvetleaf plant response rating): 60%
pest or weed control at 125 g/ha [15, 17]: 85%
